Laboratory results published in patent publication US20210060013A1, “Method for Preventing Triple Negative Breast Cancer in Predisposed Subjects” (Southern University of Science and Technology, priority 2019, published 2021).

Columns and labels:
[1] = tested on: MMTV-PyMT mice; test: MMTV-PyMT mouse model of breast cancer, preventive crenolanib treatment; format: in vivo; details: for tumor growth (tumor volumes by calipers) vs vehicle-treated mice: measured every 5 d, beginning at day 10, FIGS. 1A, 1B
Experimental: FIGS. 1A to 1C show the ability of the present invention to prevent the development of mammary tumors in a subject genetically predisposed and at high risk of developing breast cancer. MMTV-PyMT mice were administered crenolanib starting at 8 weeks of age, before the development of palpable mammary tumors. FIG. 1A: Mice were treated with 20 mg/kg crenolanib, dissolved in vehicle, intraperitoneally once daily for 35 days. FIG. 1B: Tumor sizes were measured using digital calipers every 5 days during treatment and volumes were calculated using a standard formula ((length×width)/2)). Control mice were treated with vehicle alone. FIG. 1C: At the end of crenolanib treatment, mice were sacrificed, and final tumor weight was determined.
In the MMTV-PyMT mouse model of breast cancer, the Polyoma Virus middle T antigen is expressed under the control of the mouse mammary tumor virus promoter, which results in spontaneous formation of mammary tumors in female mice. This model effectively recapitulates all of the stages of human disease, and mice develop tumors begin developing palpable mammary tumors at approximately 13 weeks of age (Guy, Cardiff, & Muller, 1992). Therefore, the MMTV-PyMT model is a highly reproducible and highly faithful model for the development of TNBC.
Animal Studies. All animal procedures were approved by the Institutional Animal Care and Use Committee at Southern University of Science and Technology. Twelve 8-wk-old female MMTV-PyMT mice were divided into six groups. The two mice in each group were littermates. Each group of mice was treated with crenolanib (20 mg/kg, dissolved in vehicle; Selleck) or vehicle [5% (vol/vol) glycerol formal; Sigma] intraperitoneally once daily for 35 d. Once palpable, tumor sizes were measured with a digital caliper every 5 d, and the volumes were calculated using the formula (length×width)/2. Data were reported as means±SE. At the end of crenolanib treatment, mice were killed, and tumors were harvested and weighted.
In vivo analysis also validated that PDGFRB was prominently expressed in tumor associated stromal cells, including spindle-shaped fibroblasts, but not in tumor tissues by using the polyoma middle T (PyMT) oncogene-driven breast cancer mouse model, which mimics all identifiable stages of human breast cancer progression (28) (data not shown). […] To further analyze the paracrine effects of breast cancer cells on fibroblast expansion, the inventors assessed the ligand secretion by breast cancer cells (data not shown). […] Tumor volumes in crenolanib-treated and untreated mice were measured every 5 d after dosing initiation. […] In addition, tumor weight per mouse at sacrifice (12 wk) was 55% lower in crenolanib-treated mice than in vehicle-treated mice (FIG. 1C).

[2] = tested on: PDGFRβ; test: Induced PDGFRβ pathway signaling in human mammary fibroblasts (Western blot); format: cell-based
Experimental: SDS/PAGE and Western Blot Analysis. The labeling performance of probe 1 to various bait proteins was characterized by high-resolution SDS/PAGE using the PROTEAN II xi Cell electrophoresis instrument (gel size, 16×20 cm; Bio-Rad) and Coomassie brilliant blue staining. Equal amounts of protein were separated by SDS/PAGE and transferred to membranes. Membranes were blocked in 5% (wt/vol) BSA and then incubated with a primary antibody overnight at 4° C., followed by an incubation with an HRP-conjugated anti-rabbit or anti-mouse secondary antibody (Cell Signaling Technology). Proteins were visualized using a Western ECL Substrate Kit (Bio-Rad). The primary antibodies used in this study were streptavidin-HRP (Thermo Fisher), anti-4G10 (Merck Millipore), anti-His (Cell Signaling Technology), anti-EGFR (Cell Signaling Technology), anti-ERBB2 (Cell Signaling Technology), anti-PDGFRB (Cell Signaling Technology), anti-p-STAT3 (Cell Signaling Technology), anti-p-AKT (Cell Signaling Technology), anti-AKT (Cell Signaling Technology), anti-p-ERK 1/2 (Cell Signaling Technology), anti-ERK 1/2 (Cell Signaling Technology), and anti-β-actin (Beyotime).
In addition, the ability of the present invention to block PDGFR signaling in a conditioned media in vitro system was investigated. […]

[3] = tested on: inflammatory breast cancer cells; details: in vitro; cited from earlier work
[4] = biological target: PDGFRβ (Homo sapiens, UniProt P09619); details: cited from earlier work
[5] = tested on: other known RTKs (e.g., VEGFR or fibroblast growth factor receptor) or serine/threonine kinases (e.g. Abl, Raf); details: at concentrations that are used clinically; cited from earlier work
[6] = in vivo; cited from earlier work
[7] = biological target: PDGFRα (Homo sapiens, UniProt P16234); details: cited from earlier work
[8] = treatment starting at 8 weeks of age, before palpable mammary tumors

Chain of PDGFRβ (Homo sapiens, UniProt P09619) (P09619 33-1106): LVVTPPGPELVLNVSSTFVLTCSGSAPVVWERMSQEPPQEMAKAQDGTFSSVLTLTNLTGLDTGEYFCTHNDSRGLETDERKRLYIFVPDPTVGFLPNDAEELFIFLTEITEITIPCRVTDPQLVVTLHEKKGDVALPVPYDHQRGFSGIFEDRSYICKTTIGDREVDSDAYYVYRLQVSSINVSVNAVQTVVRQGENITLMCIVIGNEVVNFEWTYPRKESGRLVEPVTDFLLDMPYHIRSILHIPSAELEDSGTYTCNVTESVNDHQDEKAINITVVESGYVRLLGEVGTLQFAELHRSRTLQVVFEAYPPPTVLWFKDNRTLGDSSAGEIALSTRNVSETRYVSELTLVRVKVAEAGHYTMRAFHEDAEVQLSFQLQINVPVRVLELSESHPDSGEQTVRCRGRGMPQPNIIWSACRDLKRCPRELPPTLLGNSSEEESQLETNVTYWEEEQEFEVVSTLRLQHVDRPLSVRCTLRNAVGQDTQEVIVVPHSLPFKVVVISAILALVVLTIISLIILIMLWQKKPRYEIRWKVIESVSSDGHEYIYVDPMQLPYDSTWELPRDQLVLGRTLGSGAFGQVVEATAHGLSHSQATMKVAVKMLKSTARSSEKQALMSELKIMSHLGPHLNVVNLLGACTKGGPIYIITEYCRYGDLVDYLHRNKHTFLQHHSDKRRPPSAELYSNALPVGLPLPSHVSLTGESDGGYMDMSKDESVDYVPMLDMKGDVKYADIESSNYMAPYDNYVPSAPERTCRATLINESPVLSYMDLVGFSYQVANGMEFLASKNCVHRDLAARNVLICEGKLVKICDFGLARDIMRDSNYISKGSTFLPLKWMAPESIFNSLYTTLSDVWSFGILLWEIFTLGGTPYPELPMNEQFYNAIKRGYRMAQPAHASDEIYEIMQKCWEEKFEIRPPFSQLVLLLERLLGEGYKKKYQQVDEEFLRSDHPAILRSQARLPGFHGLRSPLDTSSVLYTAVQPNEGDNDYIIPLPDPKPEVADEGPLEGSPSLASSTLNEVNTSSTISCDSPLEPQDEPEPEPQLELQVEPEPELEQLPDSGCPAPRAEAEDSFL
Chain of PDGFRα (P16234 24-1089): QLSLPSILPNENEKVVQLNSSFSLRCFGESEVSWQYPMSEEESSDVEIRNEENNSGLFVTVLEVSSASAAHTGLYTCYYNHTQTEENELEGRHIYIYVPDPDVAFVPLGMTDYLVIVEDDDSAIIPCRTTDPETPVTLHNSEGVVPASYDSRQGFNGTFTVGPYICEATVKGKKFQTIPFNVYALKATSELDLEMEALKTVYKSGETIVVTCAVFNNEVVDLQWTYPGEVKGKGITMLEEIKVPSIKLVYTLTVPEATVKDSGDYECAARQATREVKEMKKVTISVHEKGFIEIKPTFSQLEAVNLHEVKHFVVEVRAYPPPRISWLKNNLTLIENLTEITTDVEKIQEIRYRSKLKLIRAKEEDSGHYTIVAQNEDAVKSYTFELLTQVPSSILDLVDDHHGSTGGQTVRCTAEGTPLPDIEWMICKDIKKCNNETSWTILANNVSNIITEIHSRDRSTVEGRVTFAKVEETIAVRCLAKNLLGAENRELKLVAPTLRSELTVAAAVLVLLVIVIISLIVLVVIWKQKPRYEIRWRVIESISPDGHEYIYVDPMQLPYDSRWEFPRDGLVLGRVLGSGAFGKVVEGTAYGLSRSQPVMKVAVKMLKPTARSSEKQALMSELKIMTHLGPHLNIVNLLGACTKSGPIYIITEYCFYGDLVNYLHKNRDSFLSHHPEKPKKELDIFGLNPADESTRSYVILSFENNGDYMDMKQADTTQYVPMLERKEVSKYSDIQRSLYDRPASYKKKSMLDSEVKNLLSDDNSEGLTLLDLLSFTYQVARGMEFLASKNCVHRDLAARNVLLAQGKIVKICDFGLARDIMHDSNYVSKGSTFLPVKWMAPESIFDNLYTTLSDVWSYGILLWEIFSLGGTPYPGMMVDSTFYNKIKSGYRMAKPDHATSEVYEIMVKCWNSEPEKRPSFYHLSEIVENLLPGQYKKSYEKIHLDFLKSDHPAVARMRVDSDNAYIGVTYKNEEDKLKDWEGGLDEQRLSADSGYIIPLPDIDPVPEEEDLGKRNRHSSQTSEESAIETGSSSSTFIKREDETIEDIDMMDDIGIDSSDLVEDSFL

Row | Molecule | tumor weight per mouse at sacrifice, lower than in vehicle-treated mice ([1]; 20 mg/kg intraperitoneally once daily for 35 d from 8 wk of age, at sacrifice (12 wk), FIG. 1C) [%] | tumor growth (tumor volumes by calipers) vs vehicle-treated mice ([1]; 20 mg/kg intraperitoneally once daily for 35 d from 8 wk of age) | tumor growth (tumor volumes by calipers) vs vehicle-treated mice ([1]; 20 mg/kg intraperitoneally once daily for 35 d from 8 wk of age, listed as the present invention) | number of tumors [1, 8] | tumor volume [1, 8] | tumor weight [1, 8] | downstream pathway signaling (phosphorylated AK and ERK 1/2) ([2]; human mammary fibroblasts pre-treated, conditioned media from MDA-MB-468 cells, FIG. 2) | increase in PDGFRβ signaling induced by conditioned media ([2]; human mammary fibroblasts pretreated with crenolanib, conditioned media from TNBC cell line MDA-MB468, FIG. 2 left half) | growth of inflammatory breast cancer cells [3] | inhibition of PDGFRβ [4] | inhibition of other known RTKs or serine/threonine kinases [5] | oral bioavailability [6] | inhibition of PDGFRα [7]
1 | CC1(COc2ccc3c(c2)ncn3-c2ccc3cccc(N4CCC(N)CC4)c3n2)COC1 [crenolanib, 4-Piperidinamine, 1-[2-[5-[(3-methyl-3-oxetanyl)methoxy]-1H-benzimidazol-1-yl]-8-quinolinyl]] | 55 | grew significantly more slowly | significantly prevented tumor growth | reduced | reduced | reduced | inhibited | blocked this increased signaling | inhibits the growth | highly selective inhibitor | does not inhibit |  | 
2 | crenolanib besylate |  |  |  |  |  |  |  |  |  | ability to inhibit |  | orally bioavailable | ability to inhibit
